Measured values as given in patent US3966773A, “2-Substituted-3,4-epoxycyclopentan-1-ones, and 2-substituted-3,4-epoxycyclopentan-1-ols” (American Cyanamid Company, priority 1975, dated 1976).

tested on: bronchospasms elicited by 5-hydroxytryptamine; experiment: Bronchodilator activity (Konzett assay), 5-hydroxytryptamine as spasmogenic agent; format: in vivo, guinea pig; settings: Cavia porcellus; three logarithmic cumulative intravenous doses
Protocol: (§1) Bronchodilator activity was determined in guinea pigs against bronchospasms elicited by intravenous injections of 5-hydroxytryptamine, histamine or acetylcholine by the Konzett procedure. [See J. Lulling, P. Lievens, F. El Sayed and J. Prignot, Arzeimittel-Forschung, 18 995 (1968).]
(§2) In the Table which follows bronchodilater activity for representative compounds of this invention against one or more of the three spasmogenic agents is expressed as an ED50 determined from the results obtained with three logarithemic cumulative intravenous doses.

| SMILES | ED50 |
| --- | --- |
| CCCCCC(O)/C=C/[C@H]1CCC(=O)[C@@H]1CCCCCC(CC)C(=O)O (stereo partly drawn) | 0.000329 mg/kg |

tested on: bronchospasms elicited by histamine; experiment: Bronchodilator activity (Konzett assay), histamine as spasmogenic agent; format: in vivo, guinea pig; settings: Cavia porcellus; three logarithmic cumulative intravenous doses
Protocol: as §1, §2

| SMILES | ED50 |
| --- | --- |
| CCCCCC(O)/C=C/[C@H]1CCC(=O)[C@@H]1CCCCCC(CC)C(=O)O (stereo partly drawn) | 0.000145 mg/kg |

tested on: bronchospasms elicited by acetylcholine; experiment: Bronchodilator activity (Konzett assay), acetylcholine as spasmogenic agent; format: in vivo, guinea pig; settings: Cavia porcellus, read-out: Bronchodilator Activity ED50, spasmogenic agent acetylcholine; three logarithmic cumulative intravenous doses; read-out: Bronchodilator Activity ED50, spasmogenic agent choline
Protocol: as §1, §2

| SMILES | ED50 |
| --- | --- |
| CCCCCC(O)/C=C\[C@H]1CCC(=O)[C@@H]1CCCCCCC(=O)O (relative stereo) [9-oxo-15-hydroxy-13-cis-prostenoic acid, 15-hydroxy-9-oxo-13-cis-prostenoic acid] | 0.00032 mg/kg |
| CCCCCC(O)/C=C/[C@H]1CCC(=O)[C@@H]1CCCCCC(CC)C(=O)O (stereo partly drawn) | 0.000533 mg/kg |
| CCCC#CC(O)CC[C@H]1CCC(=O)[C@@H]1CCCCCCC(=O)O (stereo partly drawn) [9-oxo-15-hydroxy-16-prostynoic acid] | 0.00032 mg/kg |

tested on: diastolic blood pressure; experiment: Hypotensive activity in anesthetized rats; format: in vivo, rat (male Wistar strain); settings: Rattus norvegicus; intravenous; dose producing a decrease of about 10 mm. in diastolic blood pressure
Protocol: This procedure is a modification of the technique described by Pike et al., Prostaglandins, Nobel Symposium 2, Stockholm, June, 1966; p. 165.
Male Wistar strain rats (Royal Hart Farms) averaging approximately 250 grams in weight were fastened to rat boards in a supine position by means of canvas vests and limb ties. The femoral area was infiltrated subcutaneously with lidocaine and the iliac artery and vein were exposed and cannulated. Arterial blood pressure (systolic/diastolic) was recorded using a Statham P23 Db pressure, the animals were anethetized before use with pentobarbital, 30 mg./kg. of body weight intravenously, and also were given hexamethoxium bitartrate, 2 mg./kg. of body weight intravenously. The test compounds were prepared by ultrasonic dispersion in a saline-Tween 80 vehicle. A constant intravenous dose volume of 0.5 ml. was administered and test doses ranged from 0.1 to 10.0 mg./kg. of body weight. Increasing or decreasing doses were selected depending on the dose response obtained. In Table 2B below are set forth the minimal doses required to produce a decrease of about 10 mm. in diastolic blood pressure for typical compounds of the present invention.

| SMILES | minimal effective dose |
| --- | --- |
| CCCCCC(O)/C=C/[C@H]1CCCC(=O)[C@@H]1CCCCCCC(=O)O (relative stereo) [9-oxo-15-hydroxy-10a-homo-13-trans-prostenoic acid] | 2 mg/kg |
| CCCCCC(O)/C=C\[C@H]1CCC(=O)[C@@H]1CCCCCCC(=O)O (relative stereo) [9-oxo-15-hydroxy-13-cis-prostenoic acid, 15-hydroxy-9-oxo-13-cis-prostenoic acid] | 2 to 4 mg/kg |
| CCCCC(C)(C)C(O)/C=C/[C@H]1CCC(=O)[C@@H]1CCCCOCC(=O)O (relative stereo) [9-oxo-15-hydroxy-16,16-dimethyl-3-oxa-13-trans-prostenoic acid] | < 2 mg/kg |
| CCCCC(C)(C)C(O)/C=C/[C@H]1CCC(=O)[C@@H]1CCCCSCC(=O)O (relative stereo) [9-oxo-15-hydroxy-16,16-dimethyl-3-thia-13-trans-prostenoic acid] | < 2 mg/kg |
| CC/C=C\CC(O)/C=C/[C@H]1CCC(=O)[C@@H]1CCCCCCC(=O)O (relative stereo) [9-oxo-15-hydroxy-13-trans,17-cis-prostadienoic acid] | < 2 mg/kg |
| CCCCC[C@@H](O)/C=C/[C@H]1CCC(=O)[C@@H]1CCCCCC(C)C(=O)O (relative stereo) [2-methyl-9-oxo-15-epi-hydroxy-13-trans-prostenoic acid] | 2 mg/kg |
| CCCCC[C@@H](O)/C=C/[C@H]1CCC(=O)[C@@H]1CCCCSCC(=O)O (relative stereo) [3-thia-9-oxo-15-epi-hydroxy-13-trans-prostenoic acid] | 2 mg/kg |
| CCCCC(CC)C(O)/C=C/[C@H]1CCC(=O)[C@@H]1CCCCCCC(=O)O (relative stereo) [9-oxo-15-hydroxy-16-ethyl-13-trans-prostenoic acid] | < 8 mg/kg |
| CCCCCC(O)/C=C/[C@H]1CCC(=O)[C@@H]1CCCCC(C)(C)CC(=O)O (relative stereo) [9-oxo-15-hydroxy-3,3-dimethyl-13-trans-prostenoic acid] | 8 mg/kg |
| CCCCC[C@@H](O)/C=C/[C@H]1CCC(=O)[C@@H]1CCCCOCC(=O)OCC (relative stereo) [Ethyl 3-oxa-9-oxo-15-epi-hydroxy-13-trans-prostenoate] | 0.2 mg/kg |
| CCC/C=C/C(O)CC[C@H]1CCC(=O)[C@@H]1CCCCCCC(=O)O (relative stereo) [9-oxo-15-hydroxy-16-trans-prostenoic acid] | < 2 mg/kg |
| CCCCCC(O)/C=C/[C@H]1CCC(=O)[C@@H]1CCCCCC(C(=O)O)c1ccccc1 (relative stereo) [9-oxo-15-hydroxy-2-phenyl-13-trans-prostenoic acid] | 8 mg/kg |
| CCCCCC(O)/C=C/[C@H]1CCC(=O)[C@@H]1CCCCCC(C)C(=O)O (relative stereo) [9-oxo-15-hydroxy-2-methyl-13-trans-prostenoic acid] | 2 mg/kg |
| CCCCCC(O)/C=C/[C@H]1CCC(=O)[C@@H]1CCCCCCCCC(=O)O (relative stereo) [9-oxo-15-hydroxy-7a,7b-bishomo-13-trans-prostenoic acid] | < 8 mg/kg |
| CCCCC[C@@H](O)/C=C/[C@H]1CCCC(=O)[C@@H]1CCCCCCC(=O)O (relative stereo) [9-oxo-10a-homo-15-epi-hydroxy-13-trans-prostenoic acid] | 2 mg/kg |
| CCCCC[C@@H](O)/C=C/[C@H]1CCC(=O)[C@@H]1CCCCCC(C(=O)O)c1ccccc1 (relative stereo) [2-phenyl-9-oxo-15-epi-hydroxy-13-trans-prostenoic acid] | 2 to 8 mg/kg |

| SMILES | minimal effective dose |
| --- | --- |
| CCCCCC(O)/C=C/[C@H]1CCC(=O)[C@@H]1CCCCCC(CC)C(=O)O (stereo partly drawn) | < 2 mg/kg |
| CCCCC[C@@H](O)/C=C/[C@H]1CCC(=O)[C@@H]1CCCCOCC(=O)O (relative stereo) [3-oxa-9-oxo-15-epi-hydroxy-13-trans-prostenoic acid] | 1 to 2 mg/kg |
| CCCCC[C@@H](O)/C=C/[C@H]1CCC(=O)[C@@H]1CCCCCC(CC)C(=O)O (relative stereo) [2-ethyl-9-oxo-15-epi-hydroxy-13-trans-prostenoic acid] | 2 to 4 mg/kg |
| CCCCCC(O)/C=C/[C@H]1CCC(=O)[C@@H]1CCCCSCC(=O)O (relative stereo) [9-oxo-15-hydroxy-3-thia-13-trans-prostenoic acid] | 2 mg/kg |
| CCCCCC(O)/C=C/[C@H]1CCC(=O)[C@@H]1CCCCOCC(=O)O (relative stereo) [9-oxo-15-hydroxy-3-oxa-13-trans-prostenoic acid] | < 2 mg/kg |
| CCCC#CC(O)CC[C@H]1CCC(=O)[C@@H]1CCCCCCC(=O)O (stereo partly drawn) [9-oxo-15-hydroxy-16-prostynoic acid] | 2 mg/kg |
| CCCCCC(O)/C=C/[C@H]1CCC(=O)[C@@H]1CCCCOCC(=O)OCC (relative stereo) [Ethyl 9-oxo-15-hydroxy-3-oxa-13-trans-prostenoate] | 0.2 mg/kg |
| CC/C=C\CC(C)(O)/C=C/[C@H]1CCC(=O)[C@@H]1C/C=C\CCCC(=O)O (stereo partly drawn) [9-oxo-15-hydroxy-15-methyl-5-cis,13-trans,17-cis-prostatrienoic acid] | < 2 mg/kg |
| CCCC(C)(C)CC(O)/C=C/[C@H]1CCC(=O)[C@@H]1CCCCCCC(=O)O (relative stereo) [9-oxo-15-hydroxy-17,17-dimethyl-13-trans-prostenoic acid] | 2 mg/kg |
| CCCCC(C)(C)C(O)/C=C/[C@H]1CCC(=O)[C@@H]1CCCCCCC(=O)O (relative stereo) [9-oxo-15-hydroxy-16,16-dimethyl-13-trans-prostenoic acid] | < 2 mg/kg |
| CCCCCC(O)/C=C/[C@H]1CCCC(=O)[C@@H]1CCCCCCC(=O)OCC (relative stereo) [Ethyl 9-oxo-15-hydroxy-10a-homo-13-trans-prostenoate] | 2 mg/kg |
| CCCCCC(O)/C=C/[C@H]1CCC(=O)[C@]1(C)CCCCCCC(=O)O (relative stereo) [9-oxo-8β-methyl-15-hydroxy-13-trans-prostenoic acid] | 2 mg/kg |
| CCCCCC(O)CC[C@H]1CCC(=O)[C@@H]1CCCCCC(CC)C(=O)O (stereo partly drawn) [2-ethyl-9-oxo-15-hydroxy-prostanoic acid, 9-oxo-15-hydroxy-2-ethyl-prostanoic acid] | 0.2 mg/kg |
| CC/C=C\CC(O)/C=C/[C@H]1CCC(=O)[C@@H]1C/C=C\CCCC(=O)O (relative stereo) [9-oxo-15-hydroxy-5-cis,13-trans,17-cis-prostatrienoic acid] | < 2 mg/kg |
| CCCCCC(O)/C=C/[C@H]1CCC(=O)[C@@H]1CCCCCC(F)C(=O)O (relative stereo) [9-oxo-15-hydroxy-2-fluoro-13-trans-prostenoic acid] | 8 mg/kg |
